Results as given in ChEMBL document CHEMBL1201862, “PubChem BioAssay data set” (2004).
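Test compounds were applied to cells in 96-well plates for 48 hours at 5 doses. GI50 is the concentration that inhibits growth by half.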 The source made the active and inactive calls. Rule as the data show it: active = GI50 up to about 1.1 µM and inactive = higher.

What was measured:
Test in all cases: NCI anticancer screen, dose series, 48 h
Malme-3M = test system: Malme-3M
OVCAR-8 = test system: OVCAR-8
MDA-MB-435 = test system: MDA-MB-435
SW-620 = test system: SW-620
MDA-MB-231 = test system: MDA-MB-231
COLO 205 = test system: COLO 205
SNB-19 = test system: SNB-19
HCT-116 = test system: HCT-116
OVCAR-4 = test system: OVCAR-4
A498 = test system: A498
NCI-H522 = test system: NCI-H522
U-251 = test system: U-251
CAKI-1 = test system: CAKI-1
CCRF-CEM = test system: CCRF-CEM
DU-145 = test system: DU-145
UACC-62 = test system: UACC-62
PC-3 = test system: PC-3
K562 = test system: K562
SK-MEL-28 = test system: SK-MEL-28
A549 = test system: A549
RXF 393 = test system: RXF 393
HCC 2998 = test system: HCC 2998
SK-OV-3 = test system: SK-OV-3
TK-10 = test system: TK-10
OVCAR-3 = test system: OVCAR-3
HCT-15 = test system: HCT-15
HOP-62 = test system: HOP-62
NCI/ADR-RES = test system: NCI/ADR-RES
SNB-75 = test system: SNB-75
IGROV-1 = test system: IGROV-1
NCI-H226 = test system: NCI-H226
KM12 = test system: KM12
786-0 = test system: 786-0
LOX IMVI = test system: LOX IMVI
MCF7 = test system: MCF7
SN12C = test system: SN12C
Hs-578T = test system: Hs-578T
BT-549 = test system: BT-549
HOP-92 = test system: HOP-92
UO-31 = test system: UO-31
NCI-H23 = test system: NCI-H23
UACC-257 = test system: UACC-257
HT-29 = test system: HT-29
NCI-H460 = test system: NCI-H460
OVCAR-5 = test system: OVCAR-5
SF-268 = test system: SF-268
EKVX = test system: EKVX
SF-539 = test system: SF-539
SK-MEL-2 = test system: SK-MEL-2
ACHN = test system: ACHN
T47D = test system: T47D
M14 = test system: M14
SF-295 = test system: SF-295
HL-60 = test system: HL-60
MOLT-4 = test system: MOLT-4
SK-MEL-5 = test system: SK-MEL-5
MDA-N = test system: MDA-N
SR = test system: SR

`O=C1Cc2cc3ccccc3nc2-c2ccccc2N1` was tested, and the GI50 (Malme-3M) was > 100 µM (inactive), the GI50 (OVCAR-8) was 35.3 µM (inactive) and the GI50 (MDA-MB-435) was > 100 µM (inactive). For the same molecule, the GI50 (SW-620) was > 100 µM (inactive), the GI50 (MDA-MB-231) was 20.5 µM (inactive) and the GI50 (COLO 205) was > 100 µM (inactive). For the same molecule, the GI50 (SNB-19) was 49.2 µM (inactive), the GI50 (HCT-116) was 23.9 µM (inactive) and the GI50 (OVCAR-4) was 45.6 µM (inactive). The GI50 (A498) was 61.5 µM (inactive), the GI50 (NCI-H522) was 26.7 µM (inactive) and the GI50 (U-251) was 60 µM (inactive). The GI50 (CAKI-1) was 32.7 µM (inactive), the GI50 (CCRF-CEM) was > 100 µM (inactive) and the GI50 (DU-145) was 79.6 µM (inactive). The GI50 (UACC-62) was > 100 µM (inactive), the GI50 (PC-3) was > 100 µM (inactive) and the GI50 (K562) was 39.9 µM (inactive). The GI50 (SK-MEL-28) was > 100 µM (inactive), the GI50 (A549) was 63.7 µM (inactive) and the GI50 (RXF 393) was 70.5 µM (inactive). For the same molecule, the GI50 (HCC 2998) was 31.4 µM (inactive), the GI50 (SK-OV-3) was 38 µM (inactive) and the GI50 (TK-10) was 27.7 µM (inactive). For the same molecule, the GI50 (OVCAR-3) was 73.1 µM (inactive), the GI50 (HCT-15) was 96.6 µM and the GI50 (HOP-62) was 56 µM (inactive). The GI50 (NCI/ADR-RES) was 31.6 µM (inactive), the GI50 (SNB-75) was 24.7 µM (inactive) and the GI50 (IGROV-1) was > 100 µM (inactive). For the same molecule, the GI50 (NCI-H226) was > 100 µM (inactive), the GI50 (KM12) was > 100 µM (inactive) and the GI50 (786-0) was 35.1 µM (inactive). The GI50 (LOX IMVI) was 38.6 µM (inactive), the GI50 (MCF7) was 49 µM (inactive) and the GI50 (SN12C) was > 100 µM (inactive). The GI50 (Hs-578T) was 28.8 µM (inactive), the GI50 (BT-549) was 92.9 µM (inactive) and the GI50 (HOP-92) was 41.7 µM (inactive). The GI50 (UO-31) was 35.4 µM (inactive), the GI50 (NCI-H23) was > 100 µM (inactive) and the GI50 (UACC-257) was 99.1 µM (inactive). The GI50 (HT-29) was 55.1 µM (inactive), the GI50 (NCI-H460) was 63.7 µM (inactive) and the GI50 (OVCAR-5) was > 100 µM (inactive). For the same molecule, the GI50 (SF-268) was 81.5 µM (inactive), the GI50 (EKVX) was 67 µM (inactive) and the GI50 (SF-539) was 69.7 µM (inactive). The GI50 (SK-MEL-2) was > 100 µM (inactive), the GI50 (ACHN) was 54.7 µM (inactive) and the GI50 (T47D) was 38.5 µM (inactive). The GI50 (M14) was > 100 µM (inactive), the GI50 (SF-295) was 85.5 µM (inactive) and the GI50 (HL-60) was > 100 µM (inactive). For the same molecule, the GI50 (MOLT-4) was > 100 µM (inactive) and the GI50 (SK-MEL-5) was > 100 µM (inactive).

`C=CCNc1ccc(C)cc1` was tested, and the GI50 (OVCAR-8) was > 100 µM (inactive), the GI50 (MDA-MB-435) was > 100 µM (inactive) and the GI50 (SW-620) was > 100 µM (inactive). The GI50 (MDA-MB-231) was > 100 µM (inactive), the GI50 (COLO 205) was > 100 µM (inactive) and the GI50 (SNB-19) was > 100 µM (inactive). For the same molecule, the GI50 (HCT-116) was > 100 µM (inactive), the GI50 (OVCAR-4) was > 100 µM (inactive) and the GI50 (MDA-N) was > 100 µM (inactive). The GI50 (A498) was 3.82 µM (inactive), the GI50 (NCI-H522) was > 100 µM (inactive) and the GI50 (U-251) was > 100 µM (inactive). For the same molecule, the GI50 (CCRF-CEM) was > 100 µM (inactive), the GI50 (DU-145) was > 100 µM (inactive) and the GI50 (PC-3) was > 100 µM (inactive). For the same molecule, the GI50 (K562) was > 100 µM (inactive), the GI50 (SK-MEL-28) was > 100 µM (inactive) and the GI50 (A549) was > 100 µM (inactive). The GI50 (RXF 393) was > 100 µM (inactive), the GI50 (HCC 2998) was > 100 µM (inactive) and the GI50 (TK-10) was > 100 µM (inactive). For the same molecule, the GI50 (OVCAR-3) was > 100 µM (inactive), the GI50 (HCT-15) was over 100 µM and the GI50 (NCI/ADR-RES) was > 100 µM (inactive). The GI50 (SNB-75) was > 100 µM (inactive), the GI50 (NCI-H226) was > 100 µM (inactive) and the GI50 (KM12) was > 100 µM (inactive). For the same molecule, the GI50 (LOX IMVI) was > 100 µM (inactive), the GI50 (MCF7) was > 100 µM (inactive) and the GI50 (SN12C) was > 100 µM (inactive). For the same molecule, the GI50 (Hs-578T) was > 100 µM (inactive), the GI50 (HOP-92) was > 100 µM (inactive) and the GI50 (UO-31) was 35 µM (inactive). The GI50 (NCI-H23) was > 100 µM (inactive), the GI50 (UACC-257) was > 100 µM (inactive) and the GI50 (HT-29) was > 100 µM (inactive). For the same molecule, the GI50 (SR) was > 100 µM (inactive), the GI50 (NCI-H460) was > 100 µM (inactive) and the GI50 (SF-268) was > 100 µM (inactive). For the same molecule, the GI50 (ACHN) was > 100 µM (inactive), the GI50 (T47D) was > 100 µM (inactive) and the GI50 (M14) was > 100 µM (inactive). For the same molecule, the GI50 (SF-295) was > 100 µM (inactive), the GI50 (MOLT-4) was > 100 µM (inactive) and the GI50 (SK-MEL-5) was > 100 µM (inactive).
